Assay results: US20200062773A1, “4,4a,5,7-TETRAHYDRO-3H-FURO[3,4-b]PYRIDINYL COMPOUNDS” (Janssen Pharmaceutlca NV, priority 2016, published 2020)

Tests used:
[1] = tested on: Abeta 1-42 produced and secreted into the medium of human neuroblastoma SKNBE2 cells; assay: Cellular αLisa assay in SKNBE2 cells; type: cell-based; conditions: human neuroblastoma SKNBE2 cells expressing hAPP695, 18 hours incubation; for IC50: Homo sapiens, SKNBE2, 18 h, read-out: Cellular αLisa assay in SKNBE2 cells Abeta 42 pIC50 (converted)
Method: Cellular αLisa Assay in SKNBE2 Cells
In two αLisa assays the levels of Abeta 1-42 produced and secreted into the medium of human neuroblastoma SKNBE2 cells are quantified. The assay is based on the human neuroblastoma SKNBE2 expressing the wild type Amyloid Precursor Protein (hAPP695). The compounds are diluted and added to these cells, incubated for 18 hours and then measurements of Abeta 1-42 are taken. Abeta 1-42 are measured by sandwich αLisa. αLisa is a sandwich assay using biotinylated antibody AbN/25 attached to streptavidin coated beads and antibody cAb42/26 conjugated acceptor beads for the detection of Abeta 1-42 respectively. In the presence of Abeta 1-42, the beads come into close proximity. The excitation of the donor beads provokes the release of singlet oxygen molecules that trigger a cascade of energy transfer in the acceptor beads, resulting in light emission. Light emission is measured after 1 hour incubation (excitation at […] and emission at 615 nm).
(§1) A best-fit curve is fitted by a minimum sum of squares method to the plot of % Controlmin versus compound concentration. From this an IC50 value (inhibitory concentration causing 50% inhibition of activity) can be obtained.

BACE1 = target: T1, BACE1 (Homo sapiens, UniProt P56817); assay: BACE1 biochemical FRET based assay; conditions: Method 1: recombinant BACE1 1 μg/ml, 120 min at room temperature, pH 5.0; for IC50: read-out: Biochemical FRET based assay pIC50 (converted)
T1 construct: recombinant BACE1 protein in a final concentration of 1 μg/ml
T1 sequence (P56817 46-501): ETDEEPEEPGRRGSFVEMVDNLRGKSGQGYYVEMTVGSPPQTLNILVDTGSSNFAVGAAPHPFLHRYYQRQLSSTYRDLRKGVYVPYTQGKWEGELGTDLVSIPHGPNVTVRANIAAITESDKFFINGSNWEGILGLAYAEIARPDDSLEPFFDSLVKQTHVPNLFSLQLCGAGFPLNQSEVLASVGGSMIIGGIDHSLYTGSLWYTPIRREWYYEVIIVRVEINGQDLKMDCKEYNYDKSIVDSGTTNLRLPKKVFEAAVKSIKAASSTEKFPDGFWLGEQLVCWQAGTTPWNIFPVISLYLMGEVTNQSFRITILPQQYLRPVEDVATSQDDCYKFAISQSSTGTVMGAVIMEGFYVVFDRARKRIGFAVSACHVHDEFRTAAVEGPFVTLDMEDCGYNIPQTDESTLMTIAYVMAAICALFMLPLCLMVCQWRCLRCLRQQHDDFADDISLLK
Excerpt: BACE1 Biochemical Fret Based Assay
(§2) This assay is a Fluorescence Resonance Energy Transfer Assay (FRET) based assay. The substrate for this assay is an APP derived 13 amino acids peptide that contains the ‘Swedish’ Lys-Met/Asn-Leu mutation of the amyloid precursor protein (APP) beta-site APP-cleaving enzyme cleavage site. This substrate also contains two fluorophores: (7-methoxycoumarin-4-yl) acetic acid (Mca) is a fluorescent donor with excitation wavelength at 320 nm and emission at 405 nm and 2,4-Dinitrophenyl (Dnp) is a proprietary quencher acceptor. […] Upon cleavage by BACE1, the fluorophore Mca is separated from the quenching group Dnp, restoring the full fluorescence yield of the donor. The increase in fluorescence is linearly related to the rate of proteolysis.
Briefly in a 384-well format recombinant BACE1 protein in a final concentration of 1 μg/ml is incubated for 120 minutes at room temperature with 10 μm substrate in incubation buffer (40 mM Citrate buffer pH 5.0, 0.04% PEG, 4% DMSO) in the absence or presence of compound. Next the amount of proteolysis is directly measured by fluorescence measurement at T=0 and T=120 (excitation at 320 nm and emission at 405 nm). Results are expressed in RFU (Relative Fluorescence Units), as difference between T120 and T0.
as §1

BACE2 = target: T2, BACE2 (Homo sapiens, UniProt Q9Y5Z0); assay: BACE2 biochemical FRET based assay; conditions: recombinant BACE2, 450 minutes at room temperature, pH 5.0; for IC50: read-out: Biochemical FRET based assay pIC50 (converted)
T2 construct: recombinant BACE2 protein in a final concentration of 0.4 μg/ml
T2 sequence (Q9Y5Z0 63-518): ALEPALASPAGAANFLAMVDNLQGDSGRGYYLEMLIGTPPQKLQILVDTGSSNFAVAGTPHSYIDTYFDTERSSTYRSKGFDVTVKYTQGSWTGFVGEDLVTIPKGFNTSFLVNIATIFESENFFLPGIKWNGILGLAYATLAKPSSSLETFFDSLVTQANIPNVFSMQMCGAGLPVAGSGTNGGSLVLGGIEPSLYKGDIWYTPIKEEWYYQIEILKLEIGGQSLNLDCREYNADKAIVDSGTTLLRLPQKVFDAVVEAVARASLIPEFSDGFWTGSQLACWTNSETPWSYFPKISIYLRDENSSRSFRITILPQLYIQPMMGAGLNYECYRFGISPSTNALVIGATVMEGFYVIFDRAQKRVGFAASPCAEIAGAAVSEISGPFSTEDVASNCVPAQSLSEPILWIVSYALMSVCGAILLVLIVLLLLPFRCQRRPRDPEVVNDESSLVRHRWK
Excerpt: BACE2 Biochemical FRET Based Assay
as §2, with “assay” for “assay is an APP derived 13 amino acids peptide that”, “the beta-site APP-cleaving enzyme,” for “BACE1,”
Briefly in a 384-well format recombinant BACE2 protein in a final concentration of 0.4 μg/ml is incubated for 450 minutes at room temperature with 10 μM substrate in incubation buffer (50 mM Citrate buffer pH 5.0, 0.05% PEG, no DMSO) in the absence or presence of compound. Next the amount of proteolysis is directly measured by fluorescence measurement at T=0 and T=450 (excitation at 320 nm and emission at 405 nm). Results are expressed in RFU (Relative Fluorescence Units), as difference between T450 and T0.
as §1

Structure (SMILES) | Cellular αLisa assay in SKNBE2 cells Abeta 42 pIC50 [1] | Biochemical FRET based assay pIC50 (BACE1) | Biochemical FRET based assay pIC50 (BACE2) | IC50 [1] [nM] | IC50 (BACE1) [nM] | IC50 (BACE2) [nM]
C[C@]1(C#N)C[C@@H]2[C@@H](C(F)(F)F)OC[C@]2(c2cc(NC(=O)c3ccc(F)cn3)ccc2F)N=C1N [2f] | 7.47 | 7.83 | 7.35 |  |  | 
C[C@]1(C#N)C[C@H]2[C@H](C(F)(F)F)OC[C@@]2(c2cc(NC(=O)c3ccc(C#N)cn3)ccc2F)N=C1N [3d] | <5.05 | 5.02 | <5 |  |  | 
C[C@@]1(C#N)C[C@H]2[C@H](C(F)(F)F)OC[C@@]2(c2cc(NC(=O)c3ccc(C#N)cn3)ccc2F)N=C1N [3e] | 5.34 | 5.84 | <5 |  |  | 
C[C@]1(C#N)C[C@@H]2[C@@H](C(F)(F)F)OC[C@]2(c2cc(NC(=O)c3ccc(C#N)cn3)ccc2F)N=C1N [3f] | 8.1 | 8.33 | 6.88 |  |  | 
C[C@@H]1OC[C@@]2(c3cc(NC(=O)c4ccc(C#N)cn4)ccc3F)N=C(N)[C@@](C)(C#N)C[C@@H]12 [4c] | 6.22 | 6.28 | 5.27 |  |  | 
COc1cnc(C(=O)Nc2ccc(F)c([C@]34CO[C@H](C)[C@H]3C[C@](C)(C#N)C(N)=N4)c2)cn1 [5b] | 7.46 | 7.06 | 6.17 |  |  | 
COc1cnc(C(=O)Nc2ccc(F)c([C@@]34CO[C@@H](C)[C@@H]3C[C@@](C)(C#N)C(N)=N4)c2)cn1 [5c] | <5.05 | <5 | <5 |  |  | 
C[C@H]1OC[C@]2(c3cc(NC(=O)c4ccc(C#N)cn4)ccc3F)N=C(N)[C@@](C)(C#N)C[C@H]12 [6b] | 8.12 | 7.89 | 6.68 |  |  | 
C[C@@H]1OC[C@@]2(c3cc(NC(=O)c4ccc(C#N)cn4)ccc3F)N=C(N)[C@](C)(C#N)C[C@@H]12 [6c] | 5.14 | 5.12 | <5 |  |  | 
C[C@]1(C#N)C[C@H]2[C@H](C(F)(F)F)OC[C@@]2(c2cc(NC(=O)c3cnc(OCF)cn3)ccc2F)N=C1N [7c] | 5.32 | 5.97 | <5 |  |  | 
C[C@]1(C#N)C[C@@H]2[C@@H](C(F)(F)F)OC[C@]2(c2cc(NC(=O)c3cnc(OCF)cn3)ccc2F)N=C1N [7e] | 7.33 | 7.68 | 6.24 |  |  | 
C[C@@]1(C#N)C[C@H]2[C@H](C(F)(F)F)OC[C@@]2(c2cc(NC(=O)c3cnc(OCF)cn3)ccc2F)N=C1N [7f] | 5.43 | 5.74 | <5 |  |  | 
C[C@@]1(C#N)C[C@@H]2[C@@H](C(F)(F)F)OC[C@]2(c2cc(NC(=O)c3ncc(Cl)cn3)ccc2F)N=C1N [8c] | 8.17 | 8.75 | 8.46 |  |  | 
C[C@]1(C#N)C[C@H]2[C@H](C(F)(F)F)OC[C@@]2(c2cc(NC(=O)c3ncc(Cl)cn3)ccc2F)N=C1N [8d] | 5.1 | 5.37 | 5.08 |  |  | 
N#Cc1ccc(C(=O)Nc2ccc(F)c([C@]34CO[C@H](C(F)(F)F)[C@H]3CCC(N)=N4)c2)nc1 [11a] | 8.58 | 8.53 | 6.88 |  |  | 
Cl.NC1=N[C@@]2(c3cc(NC(=O)c4ccc(F)cn4)ccc3F)CO[C@H](C(F)(F)F)[C@H]2CC1 [12c] | 8.13 | 7.95 | 7.26 |  |  | 
CC(F)(F)[C@H]1OC[C@]2(c3cc(NC(=O)c4cnc(-n5cncn5)cn4)ccc3F)N=C(N)[C@](C)(C#N)C[C@H]12 [16a] |  |  |  | 16.6 | 4.9 | 363
CC(F)(F)[C@H]1OC[C@]2(c3cc(NC(=O)c4ccc(C#N)cn4)ccc3F)N=C(N)[C@](C)(C#N)C[C@H]12 [17a] |  |  |  | 2.14 | 1.58 | 21.4
COc1cc(C(=O)Nc2ccc(F)c([C@]34CO[C@H](C(C)(F)F)[C@H]3C[C@@](C)(C#N)C(N)=N4)c2)ncn1 [18a] |  |  |  | 138 | 24.5 | 1200
CC(C)(F)[C@H]1OC[C@]2(c3cc(NC(=O)c4ccc(C#N)cn4)ccc3F)N=C(N)[C@@](C)(C#N)C[C@H]12 [21b] |  |  |  | 19.5 | 10.5 | 708
C[C@@]1(C#N)C[C@@H]2[C@@H](CF)OC[C@]2(c2cc(NC(=O)c3cnc(OCF)cn3)ccc2F)N=C1N [22a] |  |  |  | 13.2 | 4.79 | 74.1
C[C@@]1(C#N)C[C@@H]2[C@@H](CF)OC[C@]2(c2cc(NC(=O)c3cnc(-n4cncn4)cn3)ccc2F)N=C1N [23a] |  |  |  | 25.7 | 12.3 | 355
C[C@]1(C#N)C[C@@H]2[C@@H](CF)OC[C@]2(c2cc(NC(=O)c3ccc(C#N)cn3)ccc2F)N=C1N [24b] |  |  |  | 31.6 | 14.5 | 158
